Measured values published in paper PMC7435868, “Structure-Based Virtual Screening, Synthesis and Biological Evaluation of Potential FAK-FAT Domain Inhibitors for Treatment of Metastatic Cancer” (Molecules, 2020).

How the values were obtained:
[1] = test system: T47D; experiment: Cell viability assay (CellTiter Glo), T47D; type: cell-based, human; settings: Homo sapiens, T47D, 72 h, 72 h incubation, mean of independent triplicate experiments, read-out: In vitro anti-proliferative activity IC50, T47D ER+ PR+/- HER-
Method: (§1) The antiproliferative activity of compound I as well as its newly synthesised analogues (5a–i) was evaluated in vitro against the three human breast cancer cell lines MDA-MB-231 (TNBC), T47D (ER^+, HER^−), and BT474 (ER^+, HER^+) as well as a human pancreatic cancer cell line MIAPaCa2. The seeding of the corresponding cell lines started one day before incubation, which lasted for 72 h with the different concentrations of the tested compounds. CellTiter Glo reagent (25 μL) was added to the cell plate. The luminescence was analysed after 10 min using a PerkinElmer Envision instrument. The test compounds were used at ten different triplicate concentrations in half log increments up to 100 μM.

[2] = test system: MDA-MB-231 cells; experiment: Immunofluorescence of active FAK (FAK Y861) and vinculin; type: cell-based, human
Method: The resulting fixed cells were subsequently permeabilised with 0.2% Triton-X100 in PBS for 8 min. This was proceeded by a 40 min block in 10% normal goat serum (in 1% BSA in PBS) prior to 30 min primary antibody incubation. Both FAK^Y861 and vinculin antibodies were diluted to working concentration (1:100 and 1:200, respectively) in 1% BSA in PBS. […] Slides were viewed using a 63X oil immersion lens on a Leica DM IRE2 microscope (Leica Microsystems, Wetzlar, Germany).

[3] = Turbidimetric aqueous solubility; type: physicochemical; settings: 37 °C, 2 h
Method: Both the estimated precipitation range (lower and upper bound) and a mid-range value were measured. Nicardipine and pyrene were used as control compounds.
The test compound was diluted in buffer to give a range of concentrations (1, 3, 10, 30, and 100 μM; final DMSO concentration 1%) and incubated at 37 °C for 2 hr.
The test compound (10 mM in DMSO) was serially diluted to give solutions of 0.1, 0.3, 1, and 3 mM in DMSO. Each test compound concentration was then further diluted 1 to 100 in buffer (typically 0.01 M phosphate buffered saline pH 7.4) so that the final DMSO concentration was 1%, and the final test compound concentrations were 1, 3, 10, 30, and 100 μM. The experiment was performed at 37 °C and each concentration was incubated in 7 replicate wells. The plates were incubated for 2 h at 37 °C before the absorbance was measured at 620 nm. Nicardipine and pyrene were included as control compounds. The solubility of nicardipine is pH dependent whereas the solubility of pyrene is pH independent.
An estimated precipitation range (lower and upper bound) and a calculated mid-range value were returned, along with any relevant comments, in the form of an Excel spreadsheet.

[4] = test system: BT474; experiment: Cell viability assay (CellTiter Glo), BT474; type: cell-based, human; settings: Homo sapiens, BT-474, 72 h, 72 h incubation, mean of independent triplicate experiments, read-out: In vitro anti-proliferative activity IC50, BT474 ER+ PR+/- HER+
Method: as §1

[5] = MDA-MB-231, 1 h serum stimulated
[6] = buffered aqueous solution (PBS pH 7.4, 1% DMSO)

For `CC(C)(C)c1ccc(C(CN)c2ccc(Cl)cc2)cc1` (stereo not shown) [Compound I], the IC50 [1] was 6.71 µM, the “Number of focal adhesions/cell” value [2, 5] was “significant increase in focal adhesions” and the “Size of focal adhesions” value [2, 5] was “no effect on the size of focal adhesions”. For the same compound, the “Localisation of FAK to the cell periphery” value ([2]; MDA-MB-231, 1 h serum stimulated, vs vehicle-only controls) was “increased localisation of FAK to the cell periphery”, the “Active FAK throughout the cytoplasm” value ([2]; MDA-MB-231, versus PF271 treated cells) was “significantly more active FAK displayed throughout the cytoplasm” and the “Estimated Precipitation Range, Calculated Mid-Range” value [3, 6] was over 100 µM. The “Estimated Precipitation Range, Lower Bound” value [3, 6] was 100 µM, the “Estimated Precipitation Range, Upper Bound” value [3, 6] was over 100 µM and the “Aqueous solubility (in words)” value ([3]; turbidimetric) was “high aqueous solubility”. The IC50 [4] was 2.67 µM.
